The values below come from ChEMBL document CHEMBL1128978, “1-Hydroxy-1,4-dihydroquinoxaline-2,3-diones: Novel antagonists at NMDA receptor glycine sites” (Bioorg Med Chem Lett, 1996).

Usually IC50 stands for the concentration at which inhibition is half-maximal. Low values mean inhibition by little substance, high ones a need for much substance.

A short description of the experiment: Electrophysiological assays in Xenopus oocytes expressing cloned NMDA receptor (NR1A/2C). Format: cell-based. As to conditions: Rattus norvegicus, Oocyte.
`O=c1[nH]c2cc(Cl)c(Cl)cc2n(O)c1=O`: it took 80 nM to reach half-maximal inhibition (IC50).

`Oc1nc2cc(C(F)(F)F)cc(Br)c2nc1O` gave an IC50 of 2500 nM.

In the case of `O=c1[nH]c2c(Br)cc(C(F)(F)F)cc2n(O)c1=O`, the IC50 came to 54000 nM.

Turning to `Nc1c(Cl)c(Cl)cc2nc(O)c(O)nc12`, the IC50 came to 93 nM.

As to `O=c1[nH]c2c(Br)c(Cl)c(Cl)cc2n(O)c1=O`, the IC50 turned out to be 2700 nM.

As to `Nc1c(Cl)c(Cl)cc2c1[nH]c(=O)c(=O)n2O`, 1800 nM corresponded to half-maximal inhibition (IC50).

`O=c1[nH]c2c(Cl)cc(Cl)cc2n(O)c1=O`: inhibition was half-maximal at 19000 nM (IC50).

`Oc1nc2cc(C(F)(F)F)cc(Cl)c2nc1O` yielded an IC50 of 2100 nM.

With `Oc1nc2cc(Cl)cc(Cl)c2nc1O`, the IC50 came out at 280 nM.

As for `Oc1nc2cc(Br)cc(Br)c2nc1O`, the IC50 is 1300 nM.

`Oc1nc2cc(Cl)c(Cl)c(Br)c2nc1O`: the IC50 stood at 210 nM.

`O=c1[nH]c2c(Cl)cc(C(F)(F)F)cc2n(O)c1=O` displayed an IC50 of 25000 nM.

As for `O=c1[nH]c2c(Cl)c(Cl)c(Cl)cc2n(O)c1=O`, the IC50 was determined as 2500 nM.

The compound `O=c1[nH]c2c(Br)cc(Br)cc2n(O)c1=O` returned an IC50 of 20000 nM.

Compound `Oc1nc2cc(Cl)c(Cl)c(Cl)c2nc1O` registered an IC50 of 30 nM.

Compound `Oc1nc2cc(Cl)c(Cl)cc2nc1O` [2,3-DIHYDROXY-6,7-DICHLOROQUINOXALINE] came in with an IC50 of 130 nM.
